Test results: patent US7135494B2, “Antitumoral carbazoles” (Pharma Mar, S.A., priority 2000, dated 2006)
Like-named read-outs stand apart in the source and are kept apart here.

Key:
Format in all cases: cell-based
[1] = tested on: Lung (A-549); test: SRB colorimetric assay of cell growth and viability, A-549
Protocol: (§1) Biological tests were carried out on coproverdine (the compound of Example 1 of the present application). A colorimetric type of assay, using sulforhodamine B (SRB) reaction, was used to provide a quantitative measurement of cell growth and viability. The technique described by Skehan, et al., J Natl. Cancer Inst., 1990, 82, 1107, was followed. The reader is also referred to the following references: • Faircloth et al. Journal of Tissue and Culture Methods, 1988, 11, 201. • Monks et al. Articles, 1991, 83, 757. • Mosmann et al. Journal of Immunological Methods, 1983, 65, 55.
(§2) Further biological tests were carried out on coproverdine using similar methods. The results are given using the following cellular response parameters: GI=growth inhibition, TGI=total growth inhibition (cytostatic effect) and LC=cell killing (cytotoxic effect).

[2] = tested on: Melanoma (MEL-28); test: SRB colorimetric assay of cell growth and viability, MEL-28; conditions: Homo sapiens, SK-MEL-28, 24 wells/16 mm, 10,000 cells/72 h, read-out: IC50 (concentration that causes 50% growth inhibition)
Protocol: as §1, §2

[3] = tested on: P388 leukemia cell line; test: SRB colorimetric assay of cell growth and viability, P388; conditions: Mus musculus
Protocol: as §1, §2

[4] = tested on: Colon (HT-29); test: SRB colorimetric assay of cell growth and viability, HT-29
Protocol: as §1, §2

[5] = tested on: Prostate (DU-145); test: SRB colorimetric assay of cell growth and viability, DU-145; conditions: Homo sapiens, 24 wells/16 mm, 10,000 cells/72 h, read-out: IC50 (concentration that causes 50% growth inhibition)
Protocol: as §1, §2

[6] = 96 wells/9 mm, 5,000 cells/48 h

For `COC(=O)c1cccc2c3c(n(O)c12)C(O)(C=O)C=CC3=O` (stereo not drawn) [coproverdine, 8-formyl-8,9-dihydroxy-5-oxo-8,9-dihydro-5H-carbazole-1-carboxylic acid methyl ester], the “TGI (total growth inhibition, cytostatic effect)” value [1, 6] was 15 µM, the IC50 ([1]; Homo sapiens, A549, 24 wells/16 mm, 10,000 cells/72 h, read-out: IC50 (concentration that causes 50% growth inhibition)) was 0.3 µM and the GI50 ([1]; Homo sapiens, A549, 96 wells/9 mm, 5,000 cells/48 h, read-out: GI50 (50% growth inhibition with correction for cell OD at time zero)) was 7 µM. It also gave a CC50 ([1]; Homo sapiens, A549, 96 wells/9 mm, 5,000 cells/48 h, read-out: LC50 (50% cell killing, cytotoxic effect)) of 50 µM, an IC50 [2] of 0.3 µM and an IC50 ([3]; P388, Leukemia (P-388), 24 wells/16 mm, 10,000 cells/72 h, read-out: IC50 (concentration that causes 50% growth inhibition)) of 1.6 µM. For the same compound, the IC50 ([3]; P388 leukemia cell line, first test, read-out: IC50) was 0.95 µg/mL, the “TGI (total growth inhibition, cytostatic effect)” value [4, 6] was 16 µM and the IC50 ([4]; Homo sapiens, 24 wells/16 mm, 10,000 cells/72 h, read-out: IC50 (concentration that causes 50% growth inhibition)) was 0.3 µM. For the same compound, the GI50 ([4]; Homo sapiens, 96 wells/9 mm, 5,000 cells/48 h, read-out: GI50 (50% growth inhibition with correction for cell OD at time zero)) was 6 µM, the CC50 ([4]; Homo sapiens, 96 wells/9 mm, 5,000 cells/48 h, read-out: LC50 (50% cell killing, cytotoxic effect)) was 50 µM and the IC50 [5] was 0.3 µM.
